Among the test systems are OVCAR-4 ovarian; COLO 205 colon; SNB-75 CNS; SK-MEL-5 melanoma; NCI-H23 lung; SW-620 colon; MOLT-4 leukemia; XF 498 CNS; 786-0 renal; LXFL 529 NSCLC; TK-10 renal; KM20L2 colon.
Common to all, as to assay: growth of human tumour cells (NCI), 48 h

Where “and” joins values, the source holds several entries; their conditions need not be identical. Identical values can stand only once.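 Where inhibition never reached the appropriate level, the endpoint shown equals the highest concentration tested. Otherwise, values were interpolated linearly from a five-concentration, 48-hour dose response in 96-well plates. Here, GI50 denotes the concentration required for 50% inhibition of growth. TGI: concentration producing complete growth inhibition.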

As for `Nc1cc(O)c2cc(N=Nc3ccc(N=Nc4ccc(N=Nc5ccc6cc(S(=O)(=O)O)cc(S(=O)(=O)O)c6c5)c5ccccc45)c4cc(S(=O)(=O)O)ccc34)c(S(=O)(=O)O)cc2c1`, the TGI with OVCAR-4 ovarian, in the experiment on COLO 205 colon, in the experiment with SNB-75 CNS, with SK-MEL-5 melanoma, in the experiment on NCI-H23 lung and with SW-620 colon was above 100 µM throughout. The TGI with MOLT-4 leukemia and in the experiment with XF 498 CNS was above 100 µM each time.
On to `NS(=O)(=O)c1cc2c(cc1Cl)NC(C(=O)NNC(=O)c1ccncc1)=NS2(=O)=O`, for which the TGI in the experiment on OVCAR-4 ovarian, in the experiment on 786-0 renal, in the experiment with COLO 205 colon, with LXFL 529 NSCLC, in the experiment on SNB-75 CNS and with SK-MEL-5 melanoma was above 100 µM in each case. The TGI with TK-10 renal, with NCI-H23 lung, in the experiment on SW-620 colon, in the experiment on MOLT-4 leukemia, in the experiment on XF 498 CNS and with KM20L2 colon was above 100 µM in each case.
With `NS(=O)(=O)C1CCCCC1C(=O)NNC(=O)C(=O)Nc1nc(=S)[nH][nH]1` (stereo not drawn), the TGI in the experiment on OVCAR-4 ovarian, in the experiment with COLO 205 colon, with LXFL 529 NSCLC, in the experiment with SNB-75 CNS, in the experiment on SK-MEL-5 melanoma and in the experiment with TK-10 renal was above 100 µM in each case. Further, the TGI with NCI-H23 lung, with SW-620 colon, in the experiment with MOLT-4 leukemia, in the experiment with XF 498 CNS and in the experiment with KM20L2 colon was above 100 µM in each case.
Take `CCCCCCCCCCCC1=C(O)C(=O)C=C(O)C1=O`: the TGI in the experiment on OVCAR-4 ovarian came to 33.2 µM; in the experiment on COLO 205 colon, 27.9 µM; with SNB-75 CNS, 17.7 µM; with SK-MEL-5 melanoma, 10.4 µM; with NCI-H23 lung, 29.7 µM; in the experiment with SW-620 colon, 55.3 µM. Also, the TGI with MOLT-4 leukemia is 44.1 µM; in the experiment with KM20L2 colon, 35.4 µM.
For `Cn1c(=O)c(C#N)c(O)c2cc3ccccc3nc21`, the TGI in the experiment with OVCAR-4 ovarian, in the experiment with COLO 205 colon, in the experiment with LXFL 529 NSCLC, with SNB-75 CNS, with SK-MEL-5 melanoma and in the experiment with TK-10 renal was above 100 µM throughout. Further, the TGI in the experiment with NCI-H23 lung, with SW-620 colon, in the experiment with MOLT-4 leukemia and with XF 498 CNS was above 100 µM in each case.
Regarding `Cc1c(N(Cc2ccccc2)Cc2ccccc2)nc(S(C)(=O)=O)nc1S(C)(=O)=O`, the TGI in the experiment on LXFL 529 NSCLC is 3.45 µM; with SK-MEL-5 melanoma, 25.3 µM; in the experiment with TK-10 renal it was 15.7 µM; in the experiment with NCI-H23 lung, 3.35 µM; in the experiment on SW-620 colon, 3.61 µM; with MOLT-4 leukemia, 4.76 µM. For the same compound, the TGI came to 3.16 µM in the experiment on XF 498 CNS and 3.28 µM with KM20L2 colon.
Take `COC1=C(C)C(=O)C2=C(C1=O)C1C3CC4=C(C(=O)C(OC)=C(C)C4=O)C(CNC(=O)C(C)=O)N3C(C#N)C(C2)N1C` (stereo not drawn): the TGI in the experiment with TK-10 renal was 3.76 µM; in the experiment on SW-620 colon, 0.297 µM and 0.125 µM; with KM20L2 colon it was 0.246 µM and 1.03 µM. Further, the GI50 with KM20L2 colon was 0.00267 µM.
With `O=[N+]([O-])c1cccc2c1[nH]c1c(-c3ccccc3)nccc12`, the TGI was above 33.2 µM in the experiment on OVCAR-4 ovarian; 4.23 µM in the experiment on COLO 205 colon; 7.59 µM with SNB-75 CNS; 3.46 µM in the experiment with SK-MEL-5 melanoma; 8.48 µM in the experiment with NCI-H23 lung; above 36.9 µM with SW-620 colon. Besides, the TGI in the experiment with MOLT-4 leukemia came to 4.4 µM; with XF 498 CNS, 11.7 µM; in the experiment with KM20L2 colon, 10.8 µM.
For `Cc1ccc(C)c(C(=O)CC2OC(O)C(Cl)C2Cl)c1` (stereo not drawn), the TGI with OVCAR-4 ovarian was above 100 µM; with COLO 205 colon, above 100 µM; with LXFL 529 NSCLC, 32.5 µM; in the experiment on SNB-75 CNS, above 100 µM; in the experiment with SK-MEL-5 melanoma, above 100 µM; with TK-10 renal, above 100 µM. Moreover, the TGI in the experiment on NCI-H23 lung was above 100 µM; with SW-620 colon it was 33.5 µM; in the experiment with MOLT-4 leukemia, above 100 µM; in the experiment on XF 498 CNS it was above 100 µM; with KM20L2 colon it was above 100 µM.
For the compound `C/C(=C\CNc1ncnc2c1ncn2CCC#N)CO`, the TGI in the experiment with OVCAR-4 ovarian, in the experiment with 786-0 renal, in the experiment with COLO 205 colon, with SNB-75 CNS, in the experiment on SK-MEL-5 melanoma and with TK-10 renal was above 100 µM throughout. Also, the TGI in the experiment with NCI-H23 lung, in the experiment with SW-620 colon and with MOLT-4 leukemia was above 100 µM in each case.
In the case of `CC1SCCc2nc3ccccc3n21` (stereo not drawn), the TGI in the experiment with OVCAR-4 ovarian, in the experiment on 786-0 renal, in the experiment with COLO 205 colon, in the experiment with SNB-75 CNS, with SK-MEL-5 melanoma and with TK-10 renal was above 100 µM each time. For the same compound, the TGI in the experiment with NCI-H23 lung, in the experiment on SW-620 colon and in the experiment with MOLT-4 leukemia was above 100 µM in each case.
Regarding `CCOC(=O)C1(NC(=O)OC(C)(C)C)CCc2[nH]oc(=O)c2C1` (stereo not drawn), the TGI with OVCAR-4 ovarian, in the experiment on 786-0 renal, with COLO 205 colon, with SNB-75 CNS, in the experiment on SK-MEL-5 melanoma and in the experiment on TK-10 renal was above 100 µM throughout. Also, the TGI with NCI-H23 lung, in the experiment with SW-620 colon and in the experiment on MOLT-4 leukemia was above 100 µM throughout.
For `COc1ccc(OC)c2c(Nc3ccc(S(=O)(=O)O)c4cc(S(=O)(=O)O)cc(S(=O)(=O)O)c34)cc(C)nc12`, the TGI in the experiment with OVCAR-4 ovarian, in the experiment on 786-0 renal, with COLO 205 colon, with SNB-75 CNS, with SK-MEL-5 melanoma and in the experiment with TK-10 renal was above 100 µM in each case. The TGI in the experiment on NCI-H23 lung, with SW-620 colon and in the experiment with MOLT-4 leukemia was above 100 µM each time.
With `Cc1cc(NS(=O)(=O)c2ccc(NC(NC(=O)OC(C)C)(C(F)(F)F)C(F)(F)F)cc2)nc(C)n1`, the TGI with OVCAR-4 ovarian, in the experiment on 786-0 renal, in the experiment on COLO 205 colon, in the experiment with SNB-75 CNS, in the experiment with SK-MEL-5 melanoma and in the experiment on TK-10 renal was above 100 µM each time. Besides, the TGI in the experiment with NCI-H23 lung, with SW-620 colon and with MOLT-4 leukemia was above 100 µM throughout.
Regarding `COc1ccc(Sc2ccccc2[N+](=O)[O-])cc1`, the TGI in the experiment with OVCAR-4 ovarian is above 100 µM; in the experiment with COLO 205 colon, 29.7 µM; in the experiment with LXFL 529 NSCLC it was above 100 µM; in the experiment on SNB-75 CNS, 19.7 µM; with SK-MEL-5 melanoma it was above 100 µM; in the experiment with TK-10 renal it was above 100 µM. For the same compound, the TGI in the experiment on NCI-H23 lung, in the experiment on SW-620 colon and in the experiment with MOLT-4 leukemia was above 100 µM throughout.
Take `Nc1nc(N)c2ncn(Cc3ccccc3)c2n1`: the TGI in the experiment on OVCAR-4 ovarian was above 100 µM; with 786-0 renal it was above 100 µM; with COLO 205 colon, above 100 µM; in the experiment with SNB-75 CNS, 0.937 µM; with SK-MEL-5 melanoma, above 100 µM; in the experiment on TK-10 renal, above 100 µM. For the same compound, the TGI in the experiment with NCI-H23 lung, with SW-620 colon and in the experiment on MOLT-4 leukemia was above 100 µM each time.
As for `Cc1nnc(N)s/c1=N/O`, the TGI in the experiment with OVCAR-4 ovarian, in the experiment with 786-0 renal, with COLO 205 colon, in the experiment with SNB-75 CNS, in the experiment with SK-MEL-5 melanoma and in the experiment on TK-10 renal was above 100 µM in each case. In addition, the TGI in the experiment with NCI-H23 lung, in the experiment with SW-620 colon and in the experiment on MOLT-4 leukemia was above 100 µM each time.
